Results taken from patent US20230158015A1, “DRUG COMBINATIONS FOR INHIBITING INFLAMMATION AND SRC KINASE ACTIVATION FOLLOWING INVASIVE SURGICAL PROCEDURES” (SINTETICA S.A., priority 2020, published 2023).

Assays:
[1] = test system: LPS-challenged C57BL/6 mice; experiment: LPS-induced inflammation model, H&E histopathology of lungs and spleen; assay type: in vivo, mouse
Experimental: (§1) C57BL/6J mice (6-8 weeks) were purchased from Charles River Laboratories (USA) and acclimatized for at least 1 week before use. All mice were housed in a pathogen-free facility. The mice received LPS for 24 hours. Following 24 hours, mice were treated either with lidocaine alone or methylnaltrexone alone or a combination of both, as shown in Table 1.
(§2) At the conclusion of the study, the blood and tissue samples were collected for further study. The serum was used to determine pro-inflammatory cytokines using the LEGENDplex™ mouse inflammation panel (BioLegend, USA) kit followed by flow cytometry. The lungs and spleen tissue samples were used for hematoxylin and eosin (H&E) staining and immunohistochemical analyses for immune cells, including macrophages and natural killer (NK) cells, B cells, T cells, and its subsets. For histopathology and immunohistochemistry (IHC), tissue samples were prepared by cutting 4-µm sections from the paraffin blocks. IHC staining was performed by methods described earlier. The images were captured using bright field microscopy (Nikon Microscope). Two independent investigators evaluated the H&E and all immunohistochemical staining. For slide scoring, each investigator assessed the tissues and gave a score of 0 (no expression) to 4+ (strong uniform expression) as described previously. The data were expressed either as the mean ± SD or mean ± SEM by using Graph Pad Prism software.

[2] = test system: immune cells in lungs and spleen of LPS-challenged mice; experiment: LPS-induced inflammation model, IHC staining of immune cells in lungs and spleen; assay type: in vivo, mouse; details: lungs and spleen sections
Experimental: as §1
as §2, with “The data were expressed either as the mean ± SD or mean ± SEM by using Graph Pad Prism software.” left out

p-Src protein = experiment: p-Src inhibition by increasing lidocaine doses in human pancreatic cancer cells (Western blot); assay type: cell-based; details: 30 minutes of treatment, 0-100 µM tested
Experimental: On day 1, pancreatic cancer cells were cultured until 300,000 cells per well in a 6 well plate were obtained. On day 2, the cells were treated with 0, 0.5, 1,5, 10, 15, 30, 50 and 100 µM lidocaine for 30 minutes. Plates were then collected and washed with phosphate buffered saline and stored at -80° C. Cells were subsequently lysed with 100 µl of radioimmunoprecipitation assay buffer with protease and phosphatase buffers.
Protein estimation was done using a Bradford assay under the following conditions: • A Western Blot was stripped with 6 M guanidine hydrochloride after phosphor-Src protein blocking to probe with total Src protein. • 10% SDS-PAGE 10 well Blocking: 5% bovine serum albumin for p-Src blot. • P-Src-Tyr416 (GeneTex GTX81151) Rb: 1:1000 in 5% bovine serum albumin, Overnight. • Total Src (Cell Signaling Technology 2108S ) Rb mAb 1:1000 overnight in 5% milk. • GAPDH (Invitrogen# AM4300) : 1:5000 in 5% milk overnight. • Wash: 4x for 5 minutes each with 1x TBST. • Developed using 50% femto for the p-Src protein and homemade ECL substrate for total Src and GAPDH protein.

[3] = test system: Src phosphorylation at tyrosine 419; details: cited from earlier work
p-Src / total Src [4] = experiment: Total Src and p-Src expression in MiaPaCa 2 human pancreatic cancer cell line (Western blot); assay type: cell-based; details: 10 µM lidocaine, 100 nM methylnaltrexone or both, one hour
Experimental: (§3) • P-Src-Tyr416 (GeneTex # GTX81151) 1:2000 in 5% bovine serum albumin, at room temperature, 4 hours • Total Src (CST # 2108S) 1:3000 in 5% bovine serum albumin, at room temperature, 4 hours
(§4) Example 11 evaluated the effect of 10 µM lidocaine (L), 100 nM methylnaltrexone (M) and the combination of 10 µM lidocaine + 100 nM methylnaltrexone (L+M) for 1 hour on total Src and p-Src expression in a human pancreatic cancer cell line (MiaPaCa 2). Experimental conditions were identical to Example 10.

p-Src / total Src [5] = experiment: Total Src and p-Src expression in Panc1 human pancreatic cancer cell line (Western blot); assay type: cell-based; details: 10 µM lidocaine, 100 nM methylnaltrexone or both, time points up to 6 hours, fresh media
Experimental: as §3
as §4, with “12” for “11”, “(L+M)” for “(L+M) for 1 hour”, “(Panc1) at multiple time points up to 6 hours, in fresh media.” for “(MiaPaCa 2).”

[6] = test system: LPS-induced serum inflammatory cytokines; experiment: LPS-induced inflammation model, serum inflammatory cytokines (LEGENDplex, flow cytometry); assay type: in vivo, mouse; details: serum of treated mice
Experimental: as §1, §2
Gram-negative bacterial infections are the main cause of acute lung injury, and LPS, which is the main component of the Gram-negative bacteria cell wall, is the major stimulus for the release of inflammatory mediators. Therefore, we measured the effect of lidocaine alone, methylnaltrexone alone, or a combination of lidocaine and methylnaltrexone on LPS-induced serum inflammatory cytokines profiles. Mouse inflammatory cytokines were measured in serum of control and LPS-challenged mice treated with drugs as described in Table 1, using the LEGENDplex™ mouse inflammation panel (BioLegend, USA) kit followed by flow cytometry as per manufacturer’s specifications. […] However, serum tumor necrosis factor-alpha (TNF-α), monocyte chemoattractant protein 1 (MCP- 1), interleukin 10 (IL-10), interleukin 6 (IL-6), and interleukin 17A (IL-17A) levels were found decreased in mice challenged with LPS and treated with lidocaine and methylnaltrexone together (FIGS. 14C-G). IL-1, IL-6, IL-17A, MCP-1, and TNFα are pro- inflammatory cytokines associated with inflammatory signaling. Taken together, these findings indicate that combined treatment of lidocaine and methylnaltrexone has the potential to suppress inflammatory signaling.

CCN(CC)CC(=O)Nc1c(C)cccc1C [lidocaine, 2-diethylaminoaceto-2′,6′-xylidide]
H&E staining, histopathology of lungs ([1]; LPS challenged mice, lungs): perivascular edema and accumulation of mixed cell infiltration within blood, and lymphatic vessels | histological examination of spleen ([1]; LPS challenged mice, spleen): increased number of erythrocytes in the red pulp, along with mild edema | LPS-induced inflammation (overall conclusion) ([1]; mouse model, drug alone): partially mitigate | F4/80 positive area (macrophages) [2]: partially decreased | dose from which the level of p-Src protein is reduced (p-Src protein): ≥ 10 µM | decrease in TNF-α-induced Src phosphorylation ([3]; co-incubation with TNF-α and 10 µM lidocaine, p=0.012): 73% | decrease in Src phosphorylation at tyrosine 419 ([3]; lidocaine 1 nm-100 µM, 20 minutes, Kruskal-Wallis p=0.146): did not reach statistical significance | p-Src (p-Src / total Src [4]): attenuated p-Src | p-Src (p-Src / total Src [5]): inconsistent effects on decreases in p-Src | serum interferon-gamma (IFNγ) level [6]: insignificant changes | serum interleukin 1 alpha (IL-1α) level [6]: insignificant changes
